The source of these data is patent publication US11045452B2, “Composition for preventing or treating cancer comprising a vascular disrupting agent and immune checkpoint inhibitor” (CHONG KUN DANG PHARMACEUTICAL CORP., priority 2017, dated 2021).

The test system of experiment [1] is MC38, a mouse colorectal cancer cell line. The experiment can be described thus: MC38 cancer animal model, Formula 1 with anti-PD-L1 antibody (Example 3). The experiment is classed as in vivo, C57BL/6 mouse. As to conditions: FIG. 7. As for the experimental part:
MC38 (8×10^4 cell), a mouse colorectal cancer cell line, was subcutaneously transplanted to a C57BL/6 mouse. When a size of cancer reaches 40-60 mm^3, a vehicle or 5 mg/kg of the compound of the Formula 1 was intraperitoneally injected into the mouse twice a week. Also, 1 ug/uL (200 ug/200 uL/mouse) of an anti-PD-L1 antibody was intraperitoneally injected into the mouse twice a week, in one day after administering a vehicle or the compound of the Formula 1. A size of cancer and a weight were measured twice a week.

For experiment [2] the test system is unchanged. The experiment can be described thus: MC38 cancer animal model, Formula 1 with anti-PD-1 / anti-CTLA-4 antibody (Example 2). The experiment is classed as in vivo, C57BL/6 mouse. As for the experimental part:
MC38 (8×10^4 cell), a mouse colorectal cancer cell line, was subcutaneously transplanted to a C57BL/6 mouse. When a size of cancer reaches 40-60 mm^3, a vehicle or 5 mg/kg of the compound of the Formula 1 was intraperitoneally injected into the mouse twice a week. Also, 1 ug/uL (200 ug/200 uL/mouse) of an anti-PD-1 antibody, an anti-CTLA-4 antibody or both thereof (purchased from BioXCell) was intraperitoneally injected into the mouse twice a week, in one day after administering a vehicle or the compound of the Formula 1. A size of cancer and a weight were measured twice a week.

The test system of experiment [3] is mouse bone marrow-derived dendritic cells (BM-DC). Description: Measurement of cytokines produced by dendritic cells (immunoassay kit). The following applies: 24 hours, cell culture medium, all groups administered, FIG. 4. The experiment is classed as cell-based. As for the experimental part:
(§1) Mouse bone marrow-derived dendritic cells (BM-DC) were obtained from a femur of BALB/c or C57BL/6 mouse. The cells were kept with Dulbecco's modified Eagle medium (DMEM) containing 40 ng/mL of rmGM-CSF (JW Creagene, Sungnam, Korea) and 20 ng/mL of rmIL-4 (JW CreaGene), and containing 10% heat-inactivated FBS (Hyclone), 100 U/ml of penicillin, 100 μg/ml of streptomycin (Hyclone) and 50 μM of 2-mercaptoethanol (Sigma-Aldrich, Inc., St. Louis, Mo., USA).
(§2) A compound of a Formula 2 (Compound 2), which was an active metabolite of the compound of the Formula 1, was dissolved in DMSO, and diluted with a medium of the mouse bone marrow-derived dendritic cells so as to prepare active compound.
To identify a change in secretion of cytokines, the mouse bone marrow-derived dendritic cells were treated with the compound of the Formula 2 for 24 hours, and then the cytokines were measured by using a cell culture medium. An immunoassay kit (R&D system) was used for measuring cytokines, and thus IL-1β, IL-6 and IL-12 were measured.
(§3) A statistical significance between a control group and a treated group was verified by using student t-test.

Experiment [4] shares this test system. The experiment can be described thus: Measurement of phagocytosis of dendritic cells (FITC OVA-microsphere, flow cytometer). The experiment is classed as cell-based. The following applies: 100 nM, 18 hours, then FITC OVA-microsphere 2 hours, FIG. 5. Here is the method:
as §1, §2
To identify phagocytosis of dendritic cells, the mouse bone marrow-derived dendritic cells (2×10^6/well) were treated with 100 nM of the compound of the Formula 2 for 18 hours, and then added with OVA-microsphere containing ovalbumin tagged with fluorescein isothiocyanate (FITC), so as to be cultured for 2 hours. Completely cultured cells were washed with PBS, and then the cells were collected, fixed with paraformaldehyde, and analyzed with a flow cytometer.
as §3

The test system is the same in experiment [5]. The experiment can be described thus: Identification of phenotype of dendritic cells (flow cytometry of cell surface markers). In kind it is cell-based. The following applies: 24 hours. As for the experimental part:
as §1, §2
To identify a phenotype of dendritic cells, the mouse bone marrow-derived dendritic cells were treated with the compound of the Formula 2 for 24 hours, and then were dyed with an antibody (antibody to anti-mouse CD80, anti-mouse CD86 or anti-mouse MHC II) to a cell surface marker of the mouse bone marrow-derived dendritic cells as well as an isotype control antibody. Flow cytometry was performed by using FACS Canto II flow cytometer (Becton Dickinson).
as §3

As to `COc1cc(C(=O)c2ccc(-c3csc(NC(=O)[C@@H](N)C(C)C)n3)cc2-n2cncn2)cc(OC)c1OC` [Formula 1, (S)—N-(4-(3-(1H-1,2,4-triazole-1-yl)-4-(3,4,5-trimethoxybenzoyl)phenyl)thiazole-2-yl)-2-amino-3-methylbutanamide], the “therapeutic potential in combination with the anti-PD-L1 antibody” value in experiment [1] (Formula 1 5 mg/kg i.p. + anti-PD-L1 antibody 200 ug/mouse i.p., twice a week) is “very high therapeutic potential with a synergy effect”. The growth of cancer result in experiment [1] (single administration, Formula 1 5 mg/kg i.p. twice a week, antibody 200 ug/mouse i.p. twice a week) was “remarkably inhibited”; in experiment [2] (single administration, Formula 1 5 mg/kg i.p. twice a week, antibody 200 ug/mouse i.p. twice a week, FIG. 6), “remarkably inhibited”. The “therapeutic potential in combination with the anti-CTLA-4 antibody” value in experiment [2] (Formula 1 5 mg/kg i.p. + anti-CTLA-4 antibody 200 ug/mouse i.p., twice a week, FIG. 6) is reported as “very high therapeutic potential with a synergy effect”. The “therapeutic potential in combination with the anti-PD-1 antibody” value in experiment [2] (Formula 1 5 mg/kg i.p. + anti-PD-1 antibody 200 ug/mouse i.p., twice a week, FIG. 6) is recorded as “very high therapeutic potential with a synergy effect”. Moreover, in experiment [2] (Formula 1 5 mg/kg i.p. + anti-PD-1 antibody and anti-CTLA-4 antibody, twice a week), the “experimental animals in which cancer was completely eradicated” value is reported as “two of ten”. The “anti-cancer effect in combination with the anti-PD-1 antibody and the anti-CTLA-4 antibody” value in experiment [2] (Formula 1 5 mg/kg i.p. + both antibodies i.p., twice a week, FIG. 6) is reported as “most increased”.
With `COc1cc(C(=O)c2ccc(-c3csc(N)n3)cc2-n2cncn2)cc(OC)c1OC` [Formula 2, (4-(2-aminothiazole-4-yl)-2-(1H-1,2,4-triazole-1-yl)phenyl)(3,4,5-trimethoxyphenyl)methanone], in experiment [3], the IL-1β secretion result was “increased”, the IL-6 secretion result was “increased” and the IL-12 secretion entry is given as “increased”. The “phagocytosis of dendritic cells (fluorescence intensity)” value in experiment [4] is “increased”. For the same compound, in experiment [5] (100 nM, FIG. 3), the “MHC II (phenotype of mature dendritic cells) expression” value is “increased”. Moreover, in experiment [5] (0.01, 0.1 and 1 μM, FIG. 1), the “CD80 (mature dendritic cell marker) expression” value was “increased”. Moreover, in experiment [5] (0.01, 0.1 and 1 μM, FIG. 2), the “CD86 (mature dendritic cell marker) expression” value was “increased”.
